From article PMC6958375 (Pharmaceuticals, 2019)
Entries after “also recorded” stand apart in the source; their conditions may differ. Like-named read-outs stand apart in the source and are kept apart here.

How the values were obtained:
[1] = tested on: SUM 149 cells; experiment: Cell growth assay (MTS), SUM 149; assay type: cell-based, human; conditions: 72 h of treatment, mean ± SE
Method: (§1) Dr. Elda Tagliabue (Molecular Targeting Unit, Department of Experimental Oncology and Molecular Medicine, Fondazione Institute of Hospitalization and Scientific Care, National Cancer Institute, Milan, Italy) kindly provided us the human breast cancer cell lines: MDA-MB-231(ATCC: HTB-26—Rockville, MD, USA) and SUM 149 (SUM149PT—Asterand Bioscience Detroit, MI). The first was cultured in RPMI-1640 and the second was cultured in DMEM/F-12 supplemented with insulin (5 μg/mL). The cells were authenticated using the short tandem repeat profiling method in their Institute. Prof. Giulio Ghersi (STEBICEF Department, University of Palermo, Italy) kindly provided us the non-tumorigenic cell line 1-7HB2 (ECACC 10081201—Cancer Research Technology, London, UK) that was cultured in DMEM low glucose supplemented with hydrocortisone (5 μg/mL) and insulin (10 μg/mL). HL60, obtained from ATCC® (CCL-240, Rockville, MD, USA), and its variant HL60R, obtained by exposure to gradually increasing concentrations of doxorubicin, were cultured in RPMI-1640. All media were supplemented with 10% heat-inactivated fetal calf serum, 2 mM L-glutamine, 100 U/mL penicillin and 100 μg/mL streptomycin (all reagents were from EuroClone S.p.A., Milan, Italy; GE Healthcare Life Sciences, Logan, UT, USA). All cell lines were cultured in a humidified atmosphere at 37 °C in 5% CO2.
(§2) The cells were seeded at 2 × 10^4 cells/well onto 96-well plates and incubated at 37 °C overnight; at time 0, the medium was replaced with fresh complete medium supplemented of compounds at the indicated concentrations. Following 72 h of treatment, 16 μL of a commercial solution obtained from Promega Corporation (Madison, WI, USA) containing 3-(4,5-dimethylthiazol- 2-yl)-5-(3-carboxy methoxyphenyl)-2-(4-sulphophenyl)-2H-tetrazolium (MTS) and phenazine ethosulfate were added. After a incubation in a humidified atmosphere at 37 °C in 5% CO2, the bioreduction of MTS dye was evaluated by measuring the absorbance of each well at 490 nm, using a microplate absorbance reader (iMark Microplate Reader; Bio-Rad Laboratories, Inc., Hercules, CA, USA). Cell growth inhibition was expressed as a percentage (mean ± SE) of the absorbance of the control cells.

[2] = tested on: MDA-MB-231 cells; experiment: Cell growth assay (MTS), MDA-MB-231; assay type: cell-based, human; conditions: 72 h of treatment, mean ± SE
Method: as §1, §2

[3] = tested on: 1-7HB2 cells; experiment: Cell growth assay (MTS), normal cell line 1-7HB2; assay type: cell-based; conditions: cell growth inhibition, 72 h of treatment, mean ± SE
Method: as §1, §2

[4] = tested on: HL60 cells; experiment: Cell growth assay, HL60; assay type: cell-based
Method: as §1, §2

[5] = tested on: HL60R cells; experiment: Cell growth assay, multidrug resistant HL60R; assay type: cell-based; conditions: read-out: HL60 R IC50
Method: as §1, §2

[6] = tested on: SUM 149 cells; experiment: Pro-oxidant effect by cell counting with NAC, SUM 149; conditions: for Cell Viability (%): SUM 149, cell counting, mean ± SE
Method: (§3) Pro-oxidant effects were examined by cell counting, adding N-acetyl-L-cysteine (NAC), an antioxidant molecule, 1h before compounds. Results were expressed as mean ± standard error (SE) of at least three different experiments performed in duplicate. All the chemicals were supplied by Sigma Aldrich Srl, Milan, Italy.

[7] = tested on: MDA-MB-231 cells; experiment: Pro-oxidant effect by cell counting with NAC, MDA-MB-231
Method: as §3

[8] = DPPH free radical scavenging assay; assay type: biochemical; conditions: DPPH reduction, 1 h in the dark at room temperature, absorbance 517 nm
Method: The antioxidant activity was evaluated by the DPPH stable radical method. Trolox (6-hydroxy-2,5,7,8-tetramethyl-chroman-2-carboxylic acid) curve was used as the positive control. 100 μL of sample was added to aliquots of a solution made up with DPPH (4.8 mg) in MeOH (200 mL), and the mixture was incubated in the dark, for 1 h at room temperature. The absorbance was measured using a UV-VIS spectrophotometer, at 517 nm. The results were plotted as the percentage of absorbance disappearance at 517 nm [(1-A/A0) × 100] against the amount of sample divided by the initial concentration of DPPH; lower absorbance values of reaction mixture indicate higher free radical scavenging activity. ED50 corresponds to micrograms of fraction able to consume half the amount of free radical divided by micromoles of initial DPPH. The results were expressed as antiradical capacity (ARC), which is the inverse of ED50. Each point was acquired in triplicate.

[9] = tested on: NF-κB (p65 subunit); experiment: NF-κB DNA-binding activity (TransAM), SUM 149 nuclear extracts; assay type: cell-based, human; conditions: SUM 149, compounds at IC50 values, 24 h of treatment
Description: (§4) The DNA-binding capacity of NF-κB (p65 subunit) was defined in the nuclear extracts of SUM 149 and MDA-MB-231 cells using the TransAM NF-κB and Nuclear Extract kits (Active Motif, Carlsbad, CA, USA). The determination of binding capacity was based on a 96-well plate, on which an oligonucleotide containing the NF-κB consensus binding site was fixed. […] After addition of a horseradish peroxidase-conjugated secondary antibody, a sensitive colorimetric readout was quantified by densitometry (iMark Microplate Reader; Bio-Rad Laboratories, Inc.). The control of specificity of the assay carried out according to the indications of manufacturer’s protocol. The results were expressed as arbitrary units: one unit indicated the DNA binding capacity exerted by 2.5 μg whole cell extract from Jurkat cells/microgram of protein from the nuclear extracts. Jurkat cells, stimulated with 12-O-tetradecanoylphorbol-13-acetate and calcium ionophore, are the positive control for NF-κB p65 activation.

[10] = tested on: NF-κB (p65 subunit); experiment: NF-κB DNA-binding activity (TransAM), MDA-MB-231 nuclear extracts; assay type: cell-based, human; conditions: MDA-MB-231, compounds at IC50 values, 8 h of treatment
Description: as §4

[11] = tested on: Survivin; experiment: Western blot of Survivin in SUM 149 cells; assay type: cell-based, human; conditions: SUM 149, 24 h, compound at IC50
Description: (§5) In order to verify if the three analogues alter the expression of some targets of NF-κB, like curcumin, western blot analysis was used. […] In line with the results of NF-κB DNA-binding activity inhibition, only Compounds 1 and 3 caused a decrease of expression of some targets in the same cell lines. In particular, in SUM 149 cells only Compound 3 caused a decreased expression of Survivin (a 55% of reduction respect to control) and Bcl-2 (a 48% of reduction respect to control), while in MDA-MB-231 cells only Compound 1 caused a reduction of IAP1 expression (a 32% of reduction with respect to the control) (Figure 8 and Figure 9).
(§6) Whole-cell lysates were obtained from breast cancer cells using RIPA buffer (Santa Cruz Biotechnology Inc., Dallas, TX, USA) and 25 μg protein was subjected to 10% SDS-PAGE and transferred to Hybond-P membranes (GE Healthcare Europe GmbH, Freiburg, Germany). Filters were incubated with primary antibodies raised against β-actin (Sigma-Aldrich Srl, Milan, Italy), Bcl-2 (Santa Cruz Biotechnology Inc., Dallas, TX, USA), XIAP (Cell Signaling Technology, Danvers, MA), Survivin (Novus Biologicals, Littleton, CO), IAP1 (Cell Signaling Technology, Danvers, MA). […]
(§7) Immunoblots were quantified by densitometry, the data were expressed as arbitrary units (protein/β-actin).

[12] = tested on: Bcl-2; experiment: Western blot of Bcl-2 in SUM 149 cells; assay type: cell-based, human; conditions: SUM 149, 24 h, compound at IC50
Description: as §5, §6, §7

[13] = tested on: IAP1; experiment: Western blot of IAP1 in MDA-MB-231 cells; assay type: cell-based, human; conditions: MDA-MB-231, 8 h, compound at IC50
Description: as §5, §6, §7

[14] = cell growth inhibition, read-out: SUM149 IC50 (converted)
[15] = acute promyelocytic leukemia HL60, cell growth assay, read-out: HL60 IC50
[16] = multidrug resistant variant of HL60, cell growth assay

Compound: 4-phenylsulfanyl-(1E,6E)-1,7-bis(4-hydroxy-3-methoxyphenyl)hepta-1,6-diene-3,5-dione [Compound 3]
- IC50 [1, 14]: 13.5 ± 0.88 µM
- IC50 ([2]; cell growth inhibition): 15 ± 0.85 µM
- IC50 [3]: 12.5 ± 0.43 µM
- IC50 [4, 15]: < 1 µM
- IC50 [5, 16]: 6.7 µM
- Cell Viability (%) ([6]; NAC 2 mM 1 h before compound at its IC50): 14.0 ± 4.6%
- Cell Viability (%) ([6]; compound alone at its IC50 (curc 14 μM, 1 11 μM, 2 13 μM, 3 14 μM)): 34.0 ± 2.1%
- Cell Viability (%) ([7]; MDA-MB-231, cell counting, compound alone at its IC50 (curc 25 μM, 1 18 μM, 2 20 μM, 3 15 μM), mean ± SE): 25.6 ± 0.7%
- ED50 [8]: 19.2 µM
- NF-κB DNA-binding activity [9]: stronger decrease than curcumin
- NF-κB DNA-binding activity [10]: NF-κB inhibitors
- reduction of Survivin expression respect to control [11]: 55%
- reduction of Bcl-2 expression respect to control [12]: 48%

Compound: C#CCOc1ccc(/C=C/C(=O)CC(=O)/C=C/c2ccc(OCC#C)c(OC)c2)cc1OC [Compound 2, (1E,6E)-1,7-bis(3-methoxy-4-propargyloxyphenyl)hepta-1,6-diene-3,5-dione]
- IC50 [1, 14]: 13.2 ± 1.59 µM
- IC50 ([2]; cell growth inhibition): 20 µM
- 1-7HB2 IC50 [3]: not reached
- IC50 [4, 15]: 17 µM
- IC50 [5, 16]: 9 µM

Compound: COc1cc(/C=C/C(O)=C/C(=O)/C=C/c2ccc(OCc3ccc(CBr)cc3)c(OC)c2)ccc1O [Compound 4, (1E,6E)-1-(4-hydroxy-3-methoxyphenyl)-7-[3-methoxy-4(4-methylbromobenzyl)oxyphenyl] hepta-1,6-diene-3,5-dione]
- SUM149 IC50 ([1]; cell growth inhibition): not reached
- MDA-MB-231 IC50 ([2]; cell growth inhibition): not reached
- 1-7HB2 IC50 [3]: not reached

Compound: COc1cc(/C=C/C(=O)/C=C(O)/C=C/c2ccc(OCc3ccc(CBr)cc3)c(OC)c2)ccc1OCc1ccc(CBr)cc1 [Compound 5, (1E,6E)-1,7-bis [3-methoxy-4(4-methylbromobenzyl)oxyphenyl]hepta-1,6-diene-3,5-dione]
- SUM149 IC50 ([1]; cell growth inhibition): not reached
- MDA-MB-231 IC50 ([2]; cell growth inhibition): not reached
- 1-7HB2 IC50 [3]: not reached

Compound: COc1cc(/C=C/C(=O)CC(=O)/C=C/c2ccc(O)c(OC)c2)ccc1O [Curcumin, reference compound]
- IC50 ([1]; Homo sapiens, SUM149, cell growth inhibition): 14 ± 0.29 µM
- IC50 ([2]; Homo sapiens, MDA-MB-231, cell growth inhibition): 25.5 ± 0.35 µM
- IC50 [3]: 37.5 ± 0.51 µM
- IC50 ([4]; Homo sapiens, HL-60, read-out: HL60 IC50): 47.5 µM
- IC50 ([5]; HL60R): 40.5 µM

Compound: CC(=O)N[C@@H](CS)C(=O)O [NAC, N-acetyl-L-cysteine]
- viability at 2000 µM ([6]; Homo sapiens, SUM149, read-out: Cell Viability (%)): 100 ± 9.5%
- viability at 2000 µM ([7]; Homo sapiens, MDA-MB-231, read-out: Cell Viability (%)): 87 ± 3.9%

Compound: Cc1c(C)c2c(c(C)c1O)CCC(C)(C(=O)O)O2 (stereo not drawn) [Trolox, 6-hydroxy-2,5,7,8-tetramethyl-chroman-2-carboxylic acid, reference compound]
- ED50 [8]: 12.0 µM

Compound: (1E,6E)-1-(4-hydroxy-3-methoxyphenyl)-7-(3-methoxy-4-propargyloxyphenyl)hepta-1,6-diene -3,5-dione [Compound 1]
- IC50 [1, 14]: 11.2 µM
- IC50 ([2]; cell growth inhibition): 18 µM
- IC50 [3]: 20 µM
- IC50 [4, 15]: 14 µM
- IC50 [5, 16]: 7 µM
- NF-κB DNA-binding activity [10]: NF-κB inhibitors; also recorded: greater effect than curcumin
- reduction of IAP1 expression with respect to the control [13]: 32%
